Target: α-glucosidase
Assay: colorimetric p-NPG hydrolysis assay, […] nm, triplicate
Type: biochemical, Saccharomyces cerevisiae

12-(3-carboxyfuran-2-yl)-trinorlabda-5,9-dien-15-oic acid [parasitic acid]
IC50: 36.29 ± 1.06 µg/mL
